From ChEMBL document CHEMBL1201862, “PubChem BioAssay data set” (2004)
The source made the active and inactive calls.

Experiments:
[1] = molecular target: T1, RNA-binding protein pos-1 (Caenorhabditis elegans, UniProt G5EF15); test: disruptors of C. elegans POS-1 RNA interaction – biochemical, fluorescence polarization, dose response (AID 1964);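 further: purified POS-1 fused to maltose binding protein made in E. coli; potency of compounds blocking POS-1 binding to fluorescent RNA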
T1 sequence (G5EF15 whole entry): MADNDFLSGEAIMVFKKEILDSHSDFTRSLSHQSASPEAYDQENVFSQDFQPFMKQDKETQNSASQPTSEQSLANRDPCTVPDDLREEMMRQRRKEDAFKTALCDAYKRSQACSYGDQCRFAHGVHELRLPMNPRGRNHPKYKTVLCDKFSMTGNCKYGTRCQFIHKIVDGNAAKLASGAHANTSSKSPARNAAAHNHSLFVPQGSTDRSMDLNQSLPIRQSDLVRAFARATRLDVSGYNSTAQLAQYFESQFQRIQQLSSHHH

[2] = molecular target: T2, Zinc finger protein mex-5 (Caenorhabditis elegans, UniProt Q9XUB2); test: potency of MEX-5 RNA-binding blockers – biochemical, C. elegans, fluorescence polarization, dose response (AID 1960)
T2 sequence (Q9XUB2 whole entry): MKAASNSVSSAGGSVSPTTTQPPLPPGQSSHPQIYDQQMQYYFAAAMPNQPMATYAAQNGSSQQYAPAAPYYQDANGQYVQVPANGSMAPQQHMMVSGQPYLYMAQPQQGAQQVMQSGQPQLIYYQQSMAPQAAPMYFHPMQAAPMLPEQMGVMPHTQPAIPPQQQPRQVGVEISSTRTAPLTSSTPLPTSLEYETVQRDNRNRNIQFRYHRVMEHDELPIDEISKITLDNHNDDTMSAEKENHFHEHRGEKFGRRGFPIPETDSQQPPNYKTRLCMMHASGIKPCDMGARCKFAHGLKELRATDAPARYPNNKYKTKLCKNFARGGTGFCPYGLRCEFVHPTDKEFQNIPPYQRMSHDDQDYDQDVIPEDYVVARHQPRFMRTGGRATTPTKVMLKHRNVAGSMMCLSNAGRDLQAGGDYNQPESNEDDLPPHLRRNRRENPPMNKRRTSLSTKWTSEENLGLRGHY

[3] = molecular target: T3, Rac GTPase-activating protein 1 (Homo sapiens, UniProt Q9H0H5); test: blockers of MgcRacGAP-driven Rac1 GTP hydrolysis – biochemical, ADP Hunter fluorescence, primary and confirmatory, confirmation (AID 624330); format: functional
T3 sequence (Q9H0H5 whole entry): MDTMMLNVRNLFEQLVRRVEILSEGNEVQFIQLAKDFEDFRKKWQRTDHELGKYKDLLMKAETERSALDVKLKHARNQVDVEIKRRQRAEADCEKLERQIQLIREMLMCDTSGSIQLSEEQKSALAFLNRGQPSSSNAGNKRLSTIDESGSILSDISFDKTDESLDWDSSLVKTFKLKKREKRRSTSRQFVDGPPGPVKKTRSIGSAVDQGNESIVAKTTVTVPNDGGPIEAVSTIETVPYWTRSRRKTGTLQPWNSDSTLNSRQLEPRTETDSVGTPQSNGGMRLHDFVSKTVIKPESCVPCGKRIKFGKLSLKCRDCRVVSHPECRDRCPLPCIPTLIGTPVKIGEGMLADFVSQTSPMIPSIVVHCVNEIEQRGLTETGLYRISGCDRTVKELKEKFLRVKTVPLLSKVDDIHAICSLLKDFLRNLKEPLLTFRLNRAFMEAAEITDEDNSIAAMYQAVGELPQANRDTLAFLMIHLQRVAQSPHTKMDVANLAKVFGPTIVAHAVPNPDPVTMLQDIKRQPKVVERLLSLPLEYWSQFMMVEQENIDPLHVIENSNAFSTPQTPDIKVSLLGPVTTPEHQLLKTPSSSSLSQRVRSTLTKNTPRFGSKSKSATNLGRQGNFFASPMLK

ORF 73 = molecular target: T4, ORF 73 (Human herpesvirus 8, UniProt O40947); test: KSHV LANA DNA-binding disruption – biochemical, fluorescence polarization, cherry-picked samples, dose response (AID 504725); set-up: species or system Human gammaherpesvirus 8;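 further: fluorescence polarization of a labeled DNA duplex reporting LANA DNA binding; potency is for inhibitors that block LANA binding to the DNA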
T4 sequence (O40947 whole entry): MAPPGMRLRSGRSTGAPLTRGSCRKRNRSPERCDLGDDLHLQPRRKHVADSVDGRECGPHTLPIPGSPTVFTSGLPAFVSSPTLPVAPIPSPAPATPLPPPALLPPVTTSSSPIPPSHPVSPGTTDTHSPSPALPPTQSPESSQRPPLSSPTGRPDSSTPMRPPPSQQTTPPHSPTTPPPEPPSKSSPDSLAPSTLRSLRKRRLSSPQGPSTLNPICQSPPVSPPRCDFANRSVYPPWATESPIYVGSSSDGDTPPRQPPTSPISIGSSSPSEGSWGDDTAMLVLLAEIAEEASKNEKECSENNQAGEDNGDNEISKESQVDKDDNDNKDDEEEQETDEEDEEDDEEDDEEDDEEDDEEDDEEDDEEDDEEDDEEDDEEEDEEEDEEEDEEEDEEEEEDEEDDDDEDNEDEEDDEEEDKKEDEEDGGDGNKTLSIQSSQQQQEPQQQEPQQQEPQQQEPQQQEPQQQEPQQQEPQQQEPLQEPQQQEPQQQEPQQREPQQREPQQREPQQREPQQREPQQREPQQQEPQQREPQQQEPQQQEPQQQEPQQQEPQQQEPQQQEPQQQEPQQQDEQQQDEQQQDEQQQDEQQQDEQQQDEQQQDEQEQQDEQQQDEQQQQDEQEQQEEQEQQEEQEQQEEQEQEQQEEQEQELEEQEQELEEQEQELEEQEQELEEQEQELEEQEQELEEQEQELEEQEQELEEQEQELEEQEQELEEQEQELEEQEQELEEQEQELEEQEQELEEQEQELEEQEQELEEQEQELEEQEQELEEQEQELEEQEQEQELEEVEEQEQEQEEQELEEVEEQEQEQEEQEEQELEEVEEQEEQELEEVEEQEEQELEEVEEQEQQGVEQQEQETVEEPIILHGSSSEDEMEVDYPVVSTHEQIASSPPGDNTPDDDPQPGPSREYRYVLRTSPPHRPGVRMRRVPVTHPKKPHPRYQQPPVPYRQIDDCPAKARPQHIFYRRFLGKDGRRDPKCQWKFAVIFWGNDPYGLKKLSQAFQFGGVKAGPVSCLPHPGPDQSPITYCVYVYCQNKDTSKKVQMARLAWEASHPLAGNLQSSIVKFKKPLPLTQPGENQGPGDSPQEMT

Genome polyprotein = Genome polyprotein (dengue virus type 2, UniProt P29990); test: flavivirus cap methylation enzyme inhibition – biochemical, confirmation dose response, primary screen (AID 588689); format: functional
Hexokinase = molecular target: T5, Hexokinase (Trypanosoma brucei, UniProt Q38C41); test: Confirmation assay for inhibitors of Trypanosoma brucei hexokinase 1-Analogue-first series. [Related pubchem assays (depositor defined):AID1430, AID1632, AID2516, AID2560, AID2579, AID2600, AID449725, AID492951]; format: functional
T5 sequence (Q38C41 whole entry): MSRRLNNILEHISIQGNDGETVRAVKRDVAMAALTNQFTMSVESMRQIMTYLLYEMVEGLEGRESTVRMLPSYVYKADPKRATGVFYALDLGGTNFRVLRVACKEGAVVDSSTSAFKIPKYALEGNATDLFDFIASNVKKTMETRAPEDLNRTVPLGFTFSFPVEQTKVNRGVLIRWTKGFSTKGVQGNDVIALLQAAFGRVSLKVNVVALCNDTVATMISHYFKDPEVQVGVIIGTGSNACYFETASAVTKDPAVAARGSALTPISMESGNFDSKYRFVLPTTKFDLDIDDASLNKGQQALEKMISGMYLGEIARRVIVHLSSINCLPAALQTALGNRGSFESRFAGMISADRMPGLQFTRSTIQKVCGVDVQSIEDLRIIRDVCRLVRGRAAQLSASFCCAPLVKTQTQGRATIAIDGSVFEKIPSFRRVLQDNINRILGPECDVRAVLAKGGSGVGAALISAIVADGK

[4] = molecular target: Eukaryotic translation initiation factor 4H (Homo sapiens, UniProt Q15056); test: inhibitors of translation initiation factor eIF4H – SAR follow-up (AID 435011); format: functional
[5] = molecular target: Polyadenylate-binding protein 1 (Homo sapiens, UniProt P11940); test: PABP inhibition in translation initiation, SAR follow-up (AID 435018); format: functional
[6] = molecular target: T6, Microphthalmia-associated transcription factor (Homo sapiens, UniProt O75030); test: reducers of TRPM1 reporter luminescence, concentration series – cell-based, SK-MEL-5, cherry-picked, set 3, MITF inhibitor project, dose response (AID 493073); format: functional;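 further: SK-MEL-5 melanoma cells with luciferase driven by the MITF target TRPM1 promoter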
T6 sequence (O75030 whole entry): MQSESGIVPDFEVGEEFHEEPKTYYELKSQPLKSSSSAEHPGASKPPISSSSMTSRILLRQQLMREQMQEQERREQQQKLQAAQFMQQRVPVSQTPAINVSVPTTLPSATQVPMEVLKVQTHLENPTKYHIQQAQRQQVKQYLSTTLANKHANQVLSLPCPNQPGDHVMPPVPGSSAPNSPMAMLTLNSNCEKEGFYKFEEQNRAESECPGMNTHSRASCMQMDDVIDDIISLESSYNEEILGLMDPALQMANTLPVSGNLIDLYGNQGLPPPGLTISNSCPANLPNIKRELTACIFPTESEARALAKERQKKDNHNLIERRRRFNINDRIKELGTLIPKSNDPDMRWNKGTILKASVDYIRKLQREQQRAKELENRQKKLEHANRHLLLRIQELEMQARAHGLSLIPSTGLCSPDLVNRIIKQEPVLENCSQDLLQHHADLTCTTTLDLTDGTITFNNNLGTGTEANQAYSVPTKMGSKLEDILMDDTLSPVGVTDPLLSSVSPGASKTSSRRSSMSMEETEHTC

[7] = molecular target: T7, Kappa-type opioid receptor (Homo sapiens, UniProt P41145); format: functional
Beta-galactosidase = Beta-galactosidase (Escherichia coli, UniProt Q8VNN2); format: functional
[8] = molecular target: T7, Kappa-type opioid receptor; format: functional; remark: listed apart in the source

T7 sequence (P41145 whole entry): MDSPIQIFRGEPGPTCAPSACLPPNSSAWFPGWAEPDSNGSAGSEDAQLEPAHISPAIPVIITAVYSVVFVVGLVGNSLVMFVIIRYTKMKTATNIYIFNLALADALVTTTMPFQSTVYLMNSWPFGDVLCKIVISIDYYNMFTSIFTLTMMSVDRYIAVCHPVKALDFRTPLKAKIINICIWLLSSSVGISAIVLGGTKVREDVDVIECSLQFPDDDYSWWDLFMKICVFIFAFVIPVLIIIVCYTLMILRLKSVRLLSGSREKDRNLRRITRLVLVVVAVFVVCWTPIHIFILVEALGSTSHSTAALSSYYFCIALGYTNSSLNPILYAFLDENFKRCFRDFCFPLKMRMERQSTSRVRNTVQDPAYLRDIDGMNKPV
Chain of Beta-galactosidase (Q8VNN2 whole entry): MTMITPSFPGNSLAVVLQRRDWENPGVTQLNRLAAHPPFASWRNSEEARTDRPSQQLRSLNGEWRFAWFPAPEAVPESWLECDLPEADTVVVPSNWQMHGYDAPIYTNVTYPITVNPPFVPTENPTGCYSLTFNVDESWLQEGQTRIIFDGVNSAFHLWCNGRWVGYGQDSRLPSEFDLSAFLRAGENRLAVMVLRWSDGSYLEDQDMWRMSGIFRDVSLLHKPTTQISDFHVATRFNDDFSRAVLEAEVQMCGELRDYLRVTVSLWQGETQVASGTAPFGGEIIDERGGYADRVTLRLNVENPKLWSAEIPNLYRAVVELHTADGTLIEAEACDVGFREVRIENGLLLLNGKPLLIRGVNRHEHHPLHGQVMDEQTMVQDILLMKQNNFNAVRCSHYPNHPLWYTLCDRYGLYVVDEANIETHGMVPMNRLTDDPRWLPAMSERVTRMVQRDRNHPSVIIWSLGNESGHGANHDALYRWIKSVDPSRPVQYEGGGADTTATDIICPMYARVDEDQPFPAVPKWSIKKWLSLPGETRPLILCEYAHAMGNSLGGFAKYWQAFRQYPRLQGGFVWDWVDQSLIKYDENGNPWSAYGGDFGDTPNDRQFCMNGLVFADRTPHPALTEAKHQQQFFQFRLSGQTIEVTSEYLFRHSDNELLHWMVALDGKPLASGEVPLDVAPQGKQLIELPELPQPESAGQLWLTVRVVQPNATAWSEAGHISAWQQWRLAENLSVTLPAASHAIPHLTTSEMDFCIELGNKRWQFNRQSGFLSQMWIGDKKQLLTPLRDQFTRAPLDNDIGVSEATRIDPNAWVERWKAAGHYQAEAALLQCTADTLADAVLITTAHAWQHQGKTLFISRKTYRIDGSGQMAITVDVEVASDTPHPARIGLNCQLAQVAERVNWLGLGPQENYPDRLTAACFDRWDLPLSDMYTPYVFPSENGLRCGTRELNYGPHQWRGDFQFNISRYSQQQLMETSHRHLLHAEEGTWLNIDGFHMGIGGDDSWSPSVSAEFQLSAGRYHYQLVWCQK
Chain of Genome polyprotein (P29990 2492-3391 limits assumed): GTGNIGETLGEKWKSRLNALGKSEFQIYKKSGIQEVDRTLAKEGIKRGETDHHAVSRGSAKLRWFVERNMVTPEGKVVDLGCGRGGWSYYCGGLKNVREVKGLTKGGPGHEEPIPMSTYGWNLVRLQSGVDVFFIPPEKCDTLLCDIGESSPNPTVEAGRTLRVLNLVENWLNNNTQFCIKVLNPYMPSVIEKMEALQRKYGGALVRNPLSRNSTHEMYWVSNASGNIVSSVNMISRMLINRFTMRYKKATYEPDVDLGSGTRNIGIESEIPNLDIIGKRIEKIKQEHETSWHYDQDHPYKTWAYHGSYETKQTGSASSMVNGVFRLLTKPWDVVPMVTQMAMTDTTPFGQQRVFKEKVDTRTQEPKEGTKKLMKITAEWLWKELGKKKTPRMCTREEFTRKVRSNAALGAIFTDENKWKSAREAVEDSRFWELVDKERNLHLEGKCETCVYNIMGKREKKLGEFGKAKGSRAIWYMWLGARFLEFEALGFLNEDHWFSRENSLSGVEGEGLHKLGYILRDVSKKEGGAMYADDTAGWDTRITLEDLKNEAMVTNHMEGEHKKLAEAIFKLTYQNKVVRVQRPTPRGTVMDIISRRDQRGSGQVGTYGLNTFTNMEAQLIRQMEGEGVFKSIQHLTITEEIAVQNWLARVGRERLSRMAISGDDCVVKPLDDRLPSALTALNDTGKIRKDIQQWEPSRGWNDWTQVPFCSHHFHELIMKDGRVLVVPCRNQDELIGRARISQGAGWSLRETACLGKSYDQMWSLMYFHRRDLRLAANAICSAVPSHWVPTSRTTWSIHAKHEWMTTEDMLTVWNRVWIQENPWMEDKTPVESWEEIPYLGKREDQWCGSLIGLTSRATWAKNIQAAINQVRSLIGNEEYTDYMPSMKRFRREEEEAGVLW
Chain of Polyadenylate-binding protein 1 (P11940 whole entry): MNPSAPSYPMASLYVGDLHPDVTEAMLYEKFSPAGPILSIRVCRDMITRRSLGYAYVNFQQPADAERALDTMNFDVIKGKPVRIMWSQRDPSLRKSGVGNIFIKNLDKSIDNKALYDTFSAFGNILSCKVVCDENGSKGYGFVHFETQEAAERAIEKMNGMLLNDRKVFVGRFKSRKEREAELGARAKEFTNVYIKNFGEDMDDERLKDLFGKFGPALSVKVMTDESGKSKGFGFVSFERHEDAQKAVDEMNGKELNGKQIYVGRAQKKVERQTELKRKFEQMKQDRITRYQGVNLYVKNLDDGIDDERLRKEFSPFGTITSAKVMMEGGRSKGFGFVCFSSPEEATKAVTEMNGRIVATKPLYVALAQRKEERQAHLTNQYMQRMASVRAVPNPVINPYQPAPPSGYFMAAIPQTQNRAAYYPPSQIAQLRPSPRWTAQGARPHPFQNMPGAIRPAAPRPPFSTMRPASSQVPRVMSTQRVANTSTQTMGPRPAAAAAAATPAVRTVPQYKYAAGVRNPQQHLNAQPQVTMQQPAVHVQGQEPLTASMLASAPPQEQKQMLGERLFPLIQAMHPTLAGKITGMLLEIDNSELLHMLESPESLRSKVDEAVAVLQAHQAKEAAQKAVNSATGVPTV

For `O=C(O)c1ccc2c(c1)C(=O)/C(=C\c1ccco1)C2=O`, the EC50 [1] was > 300 µM (not active), the EC50 [2] was 32.1 µM (active) and the IC50 [3] was 89.2 µM (active). The AC50 (ORF 73) was 133 µM (active) and the IC50 (Genome polyprotein) was 12.3 µM (active).
For `COc1cccc(NC(=O)Cn2sc3ccccc3c2=O)c1`, the IC50 (Hexokinase) was 5.03 µM (active).
For `O=C(Nc1cc(Cl)ccc1C(=O)O)c1ccc(Cl)cc1`, the IC50 (Hexokinase) was > 25 µM (inactive).
With `COc1ccc(Cl)cc1NC(=O)COC(=O)c1ccc(NC(N)=O)cc1` the IC50 [4] was > 100 µM (inactive) and the IC50 [5] was > 100 µM (inactive).
In the case of `CC1=C/C(=N\NC(=S)Nc2cccnc2)CC(C)(C)C1`, the AC50 [6] is reported as 11 µM (active), the IC50 [7] is reported as greater than 32 µM and the EC50 (Beta-galactosidase) is reported as > 31.5 µM (inactive). The IC50 [8] was 9.46 µM (active).
